Test results reported in patent US9732085B2, “Pyridinone and pyrimidinone derivatives as factor Xia” (ONO PHARMACEUTICAL CO., LTD., priority 2011, dated 2017).
Where two headings read alike, the source gives them in different places. One block for each molecule: values may come before it.

Assays:
Human Factor XIa = Human Factor XIa (Homo sapiens (Human), UniProt P03951); assay: Factor XIa enzyme activity (chromogenic substrate S-2366); format: biochemical; details: read-out: In vitro FXIa inhibitory activity IC50
Human Factor XIa, sequence (P03951 388-625): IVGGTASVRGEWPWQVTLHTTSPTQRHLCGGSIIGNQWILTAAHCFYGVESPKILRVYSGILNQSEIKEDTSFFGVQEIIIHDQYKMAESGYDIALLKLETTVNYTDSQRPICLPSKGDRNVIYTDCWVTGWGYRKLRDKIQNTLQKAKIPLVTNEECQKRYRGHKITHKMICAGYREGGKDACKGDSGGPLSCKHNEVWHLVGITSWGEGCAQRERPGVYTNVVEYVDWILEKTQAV
Human Factor XIa, sequence (P03951 19-387 partner): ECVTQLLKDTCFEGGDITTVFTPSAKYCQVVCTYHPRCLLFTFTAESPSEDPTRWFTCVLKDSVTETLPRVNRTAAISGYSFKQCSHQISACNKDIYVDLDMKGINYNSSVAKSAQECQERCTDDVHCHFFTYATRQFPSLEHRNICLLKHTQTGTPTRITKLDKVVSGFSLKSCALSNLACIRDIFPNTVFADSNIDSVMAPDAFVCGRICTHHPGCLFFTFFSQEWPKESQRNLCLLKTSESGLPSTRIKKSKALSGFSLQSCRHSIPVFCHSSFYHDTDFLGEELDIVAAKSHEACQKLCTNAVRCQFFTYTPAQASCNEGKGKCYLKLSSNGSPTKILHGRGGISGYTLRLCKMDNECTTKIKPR
Description: Inhibitory activities of compounds of the present invention against factor XIa, Xa, XIIa, IXa, VIIa, plasma kallikrein or thrombin were evaluated using appropriate purified proteases and synthetic substrates. The rate of hydrolysis of the chromogenic substrate by the relevant protease was continuously measured at 405 nm.
Inhibitory activity against each enzyme was calculated as % inhibition using the equation described below. % Inhibition=[[(rate without compound)−(rate with compound)](rate without compound)]×100%. Each half maximal inhibitory concentration (IC50) value was determined by plotting the concentration of compound of the invention against the % inhibition. (1-1) Factor XIa Enzyme Activity
Human Factor XIa (Haematologic Technologies Inc.) activity was measured at an enzyme concentration of 0.1 U/mL in 150 mM NaCl, 5 mM KCl, 1 mg/mL PEG6000, 50 mM HEPES-NaOH (pH7.4) with 300 μM S-2366 (pyroGlu-Pro-Arg-pNA, Chromogenix).

[1] = Rat oral administration test (plasma concentration via FXIa inhibitory activity); format: in vivo; details: fasted male Crj:CD(SD)IGS rats, single 3 mg/kg p.o., 20% wellsolve, read-out: rat plasma concentration after po administration Cmax at 3 mpk
Description: Each compound of the present invention in a solution of 20% wellsolve (celeste) was given to fasted male Crj:CD(SD)IGS rats as a single 3 mg/kg, p.o. dose by gavage. Blood samples were drawn from jugular vein into syringes containing 3.2% sodium citrate (the volume ratio of blood to anticoagulant=9:1) after oral administration at 0.5, 1, 2, 4 and 6 hours. Plasma was harvested by centrifugation and stored at −20° C. until measurement of plasma concentration.
To measure plasma concentrations of the compounds of the present invention, plasma samples were deproteinized with acetonitrile, followed by evaporation of the acetonitrile to dryness. The residual was then re-dissolved with DMSO and its FXIa inhibitory activity was measured by enzyme assay described above. Plasma concentrations of each compound of the present invention were quantitated by generating a standard curve of known compound concentration in rat plasma.

[2] = Pharmacokinetic (PK) study of the compound which has an ester group(s) in rat; format: in vivo; details: plasma, po, fasted male Crj:CD(SD) rats, single 3 mg/kg p.o., analyte: administered ester compound, read-out: rat plasma concentration of ester compound after po administration Cmax at 3mpk
Description: Each compound of the present invention in a solution of 20% wellsolve (celeste) was given to fasted male Crj:CD(SD) rats as a single 3 mg/kg, p.o. dose by gavage. Blood samples were drawn from jugular vein into syringes treated with heparin-diisopropyl fluorophosphate mixture (500:1) at 0.5, 1, 3, 7 hours after oral administration. Plasma was obtained by centrifugation and stored at −20° C. until measurement of plasma concentration.
To measure plasma concentrations of the compounds of the present invention, plasma samples were deproteinized with acetonitrile, followed by evaporation of the acetonitrile to dryness. Then the sample was reconstituted in the mobile phase and analyzed by LC/MS/MS. An analytical column (Shim-pack XR-ODS II, 2.0 mm×75 mm, 2.2 μm) and mobile phase (0.1% formic acid in water and 0.1% formic acid in acetonitrile, flow rate of 0.5 mL/min) were used. The system was used in multiple reaction monitoring (MRM) mode with positive ion detection.

[3] = Table 2, comparison with comparative compounds
[4] = human Factor XIa 0.1 U/mL, 300 μM S-2366, pH7.4

Compound: COC(=O)Nc1ccc(-c2[nH]c([C@H](Cc3ccccc3)NC(=O)CCc3cc(Cl)ccc3-n3cnnn3)nc2Cl)cc1 [Comp Ex 1, reference compound]
IC50 (Human Factor XIa; [3]): 3.6 nM
Cmax [1]: 15 nM

Compound: COC(=O)Nc1ccc(-c2[nH]c([C@H](C)NC(=O)/C=C/c3cc(Cl)ccc3-n3cnnn3)nc2Cl)cc1 [Comp Ex 2, reference compound]
Cmax [1]: 25 nM

Compound: COC(=O)Nc1ccc(-c2[nH]c(CNC(=O)/C=C/c3cc(Cl)ccc3-n3cnnn3)nc2Cl)cc1 [Comp Ex 3, reference compound]
Cmax [1]: 88 nM

Compound: COC(=O)Nc1ccc(-c2cnc(C3CCc4nc(-c5cc(Cl)ccc5-n5cnnn5)cc(=O)n43)[nH]2)cc1 (centres unmarked) [Example 41, methyl[4-(2-{2-[5-chloro-2-(1H-tetrazol-1-yl)phenyl]-4-oxo-4,6,7,8-tetrahydropyrrolo[1,2-a]pyrimidin-6-yl}-1H-imidazol-5-yl)phenyl]carbamate]
IC50 (Human Factor XIa; [3]): 6.5 nM
IC50 (Human Factor XIa; [4]): 6.5 nM
Cmax [1]: 2280 nM

Other lines, results leading:

IC50 (Human Factor XIa; [3]): 15 nM
IC50 (Human Factor XIa; [4]): 15 nM
Cmax [1]: 1250 nM
Compound: COC(=O)Nc1ccc(-c2[nH]c(C3CCc4cc(-c5cc(Cl)ccc5-n5cnnn5)cc(=O)n43)nc2Cl)cc1 (centres unmarked) [Example 45, methyl[4-(4-chloro-2-{7-[5-chloro-2-(1H-tetrazol-1-yl)phenyl]-5-oxo-1,2,3,5-tetrahydro-3-indolizinyl}-1H-imidazol-5-yl)phenyl]carbamate]

IC50 (Human Factor XIa; [3]): 2.4 nM
IC50 (Human Factor XIa; [4]): 2.4 nM
Cmax [1]: 510 nM
Compound: COC(=O)Nc1ccc(-c2[nH]c(Cn3ccc(-c4cc(Cl)ccc4-n4cnnn4)cc3=O)nc2Cl)cc1 [Example 57, methyl{4-[5-chloro-2-({4-[5-chloro-2-(1H-tetrazol-1-yl)phenyl]-2-oxo-1(2H)-pyridinyl}methyl)-1H-imidazol-4-yl]phenyl}carbamate]

Cmax [2]: 960 nM
Compound: CCOC(=O)c1ccc(-c2cnc([C@@H]3CCc4cc(-c5cc(Cl)ccc5-n5cnnn5)cc(=O)n43)[nH]2)s1 [Example 401, ethyl 5-(2-{(3S)-7-[5-chloro-2-(1H-tetrazol-1-yl)phenyl]-5-oxo-1,2,3,5-tetrahydro-3-indolizinyl}-1H-imidazol-5-yl)-2-thiophenecarboxylate]
